Experimental data: patent US12466803B2 (priority 2021, dated 2025)

test system: obese ZSF1 rats; test: not given; settings: diet containing 1.36 g BT2/kg, after 4 additional weeks (8 weeks) of treatment; mean±SD

| Compound | kidney weights |
| --- | --- |
| O=C(O)c1sc2cc(Cl)ccc2c1Cl [BT2] | 2.09 ± 0.1 g |

same assay, conditions: diet containing 1.36 g BT2/kg, after 4 weeks of treatment; BCA assay; mean±SD

| Compound | urine protein normalized to creatinine |
| --- | --- |
| O=C(O)c1sc2cc(Cl)ccc2c1Cl [BT2] | 55.4±7.2 mg protein/mg creatinine |

same assay, conditions: diet containing 1.36 g BT2/kg, after 4 weeks of treatment; mean±SD

| Compound | urine produced in 5 hour urine collection |
| --- | --- |
| O=C(O)c1sc2cc(Cl)ccc2c1Cl [BT2] | 4.4 ± 2.7 mL |

same assay, conditions: histology graded on a scale of 0-4, after 8 weeks of BT2 diet; mean±SD

| Compound | diabetic nephropathy score |
| --- | --- |
| O=C(O)c1sc2cc(Cl)ccc2c1Cl [BT2] | 2.9±0.8 |

test system: phospho (S293) BCKDHA in human skeletal myocytes; test: Phospho BCKDHA Alpha Surefire Cell Assay; format: cell-based; settings: Homo sapiens, 1 h, 60 minutes with compound, geometric mean

| IC50 | Compound |
| --- | --- |
| 2300 nM | CCc1nccc(-c2c(C(=O)O)sc3cc(F)ccc23)c1F [Example 112, 3-(2-ethyl-3-fluoropyridin-4-yl)-6-fluoro-1-benzothiophene-2-carboxylic acid] |
| 1800 nM | COc1cc(-c2c(C(=O)O)sc3cc(F)ccc23)c(F)c(F)c1Cl [Example 114, 3-(4-chloro-2,3-difluoro-5-methoxyphenyl)-6-fluoro-1-benzothiophene-2-carboxylic acid] |
| 120 nM | Cc1c(F)ccc(-c2c(C(=O)O)sc3cc(F)ccc23)c1F [Example 117, 3-(2,4-difluoro-3-methylphenyl)-6-fluoro-1-benzothiophene-2-carboxylic acid] |
| 1800 nM | COc1ccc(F)c(-c2c(C(=O)O)sc3cc(Cl)ccc23)c1F [Example 129, 6-chloro-3-(2,6-difluoro-3-methoxyphenyl)-1-benzothiophene-2-carboxylic acid] |
| 470 nM | O=C(O)c1sc2cc(Cl)ccc2c1-c1cc(Cl)c(F)cc1F [Example 132, ammonium 6-chloro-3-(5-chloro-2,4-difluorophenyl)-1-benzothiophene-2-carboxylate] |
| 730 nM | O=C(O)c1sc2cc(Cl)ccc2c1-c1cc(F)c(F)cc1F [Example 133, 6-chloro-3-(2,4,5-trifluorophenyl)-1-benzothiophene-2-carboxylic acid] |
| 80 nM | CCc1c(F)c(F)cc(-c2c(C(=O)O)sc3cc(Cl)ccc23)c1F [Example 134, 6-chloro-3-(3-ethyl-2,4,5-trifluorophenyl)-1-benzothiophene-2-carboxylic acid] |
| 120 nM | Cc1c(F)c(-c2c(C(=O)O)sc3cc(Cl)ccc23)cc(F)c1Cl [Example 136, ammonium 6-chloro-3-(4-chloro-2,5-difluoro-3-methylphenyl)-1-benzothiophene-2-carboxylate] |
| 540 nM | Cc1cc(-c2c(C(=O)O)sc3cc(Cl)ccc23)c(F)cc1F [Example 137, 6-chloro-3-(2,4-difluoro-5-methylphenyl)-1-benzothiophene-2-carboxylic acid] |
| 160 nM | COc1c(Cl)ccc(-c2c(C(=O)O)sc3cc(Cl)ccc23)c1F [Example 138, 6-chloro-3-(4-chloro-2-fluoro-3-methoxyphenyl)-1-benzothiophene-2-carboxylic acid] |
| 3800 nM | O=C(O)c1sc2cc(F)ccc2c1-c1c(F)c(F)cc(F)c1F [Example 140, 6-fluoro-3-(2,3,5,6-tetrafluorophenyl)-1-benzothiophene-2-carboxylic acid] |
| 230 nM | Cc1c(F)ccc(-c2c(C(=O)O)sc3cc(Cl)ccc23)c1F [Example 141, 6-chloro-3-(2,4-difluoro-3-methylphenyl)-1-benzothiophene-2-carboxylic acid] |
| 200 nM | CCc1c(F)ccc(-c2c(C(=O)O)sc3cc(Cl)ccc23)c1F [Example 143, 6-chloro-3-(3-ethyl-2,4-difluorophenyl)-1-benzothiophene-2-carboxylic acid] |
| 110 nM | Cc1c(Cl)ccc(-c2c(C(=O)O)sc3cc(Cl)ccc23)c1F [Example 146, 6-chloro-3-(4-chloro-2-fluoro-3-methylphenyl)-1-benzothiophene-2-carboxylic acid] |
| 190 nM | O=C(O)c1sc2cc(F)ccc2c1-c1ccc(F)c(C2CC2)c1F [Example 147, 3-(3-cyclopropyl-2,4-difluorophenyl)-6-fluoro-1-benzothiophene-2-carboxylic acid] |
| 4000 nM | O=C(O)c1sc2cc(F)ccc2c1-c1c(F)cc(F)cc1Cl [Example 148, 3-(2-chloro-4,6-difluorophenyl)-6-fluoro-1-benzothiophene-2-carboxylic acid] |
| 950 nM | O=C(O)c1sc2cc(Cl)ccc2c1-c1cc(F)c(F)c(F)c1F [Example 149, ammonium 6-chloro-3-(2,3,4,5-tetrafluorophenyl)-1-benzothiophene-2-carboxylate] |
| 1100 nM | COc1ccc(Cl)c(-c2c(C(=O)O)sc3cc(F)ccc23)c1F [Example 150, 3-(6-chloro-2-fluoro-3-methoxyphenyl)-6-fluoro-1-benzothiophene-2-carboxylic acid] |
| 4200 nM | COc1c(F)cc(F)c(-c2c(C(=O)O)sc3cc(F)ccc23)c1Cl [Example 154, 3-(2-chloro-4,6-difluoro-3-methoxyphenyl)-6-fluoro-1-benzothiophene-2-carboxylic acid] |
| 230 nM | COc1c(F)c(F)cc(-c2c(C(=O)O)sc3ccccc23)c1F [Example 157, 3-(2,4,5-trifluoro-3-methoxyphenyl)-1-benzothiophene-2-carboxylic acid] |
